Reference: patent US20230081390A1, “INHIBITORS OF RAF KINASES” (Kinnate Biopharma Inc., priority 2019, published 2023)

target: human RAF1 (Homo sapiens, UniProt P04049); assay: Protein kinase assay (33P-ATP filter binding), human RAF1, 10-dose IC50; format: biochemical; settings: MEK1 (K97R) substrate 3 micromolar, ATP 10 micromolar, read-out: RAF-1 IC50
Summary of the method: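 Human RAF1 phosphorylated human MEK1 (K97R) substrate at 3 µM with 10 µM ATP (³³P), in pH 7.5 HEPES buffer with MgCl2, EGTA, Brij35, BSA, Na3VO4 and DTT. Reactions ran for 2 hr at room temperature with P81 filter capture.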

human RAF1, sequence (P04049 whole entry): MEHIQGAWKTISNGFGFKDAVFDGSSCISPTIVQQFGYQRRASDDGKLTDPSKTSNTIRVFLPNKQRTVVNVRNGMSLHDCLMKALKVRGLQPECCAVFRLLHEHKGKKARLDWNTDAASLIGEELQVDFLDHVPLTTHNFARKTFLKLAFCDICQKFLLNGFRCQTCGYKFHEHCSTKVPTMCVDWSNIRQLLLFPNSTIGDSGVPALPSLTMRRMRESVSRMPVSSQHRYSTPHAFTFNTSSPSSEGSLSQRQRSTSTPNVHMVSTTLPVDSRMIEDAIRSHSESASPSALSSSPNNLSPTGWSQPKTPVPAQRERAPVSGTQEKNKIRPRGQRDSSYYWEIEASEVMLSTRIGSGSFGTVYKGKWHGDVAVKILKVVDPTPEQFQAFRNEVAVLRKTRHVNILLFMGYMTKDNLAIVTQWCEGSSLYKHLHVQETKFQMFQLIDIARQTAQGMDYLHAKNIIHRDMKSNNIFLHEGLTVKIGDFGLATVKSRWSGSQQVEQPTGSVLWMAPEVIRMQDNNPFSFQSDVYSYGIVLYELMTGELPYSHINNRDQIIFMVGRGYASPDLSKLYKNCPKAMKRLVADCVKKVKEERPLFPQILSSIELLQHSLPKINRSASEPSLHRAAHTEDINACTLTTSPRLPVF

| IC50 | SMILES |
| --- | --- |
| < 10 nM | Cc1ccc(NC(=O)N2CC[C@@H](CC(F)(F)F)C2)cc1-c1cc(O[C@H]2CC[C@H](O)C2)nc(N2CCOCC2)c1 [Example 207, (3S)-N-[3-(2-[[(1S,3S)-3-hydroxycyclopentyl]oxy]-6-(morpholin-4-yl)pyridin-4-yl)-4-methylphenyl]-3-(2,2,2-trifluoroethyl)pyrrolidine-1-carboxamide] |
| < 10 nM | Cc1ccc(NC(=O)N2CC[C@@H](CC(F)(F)F)C2)cc1-c1cc(O[C@@H]2CC[C@@H](O)C2)nc(N2CCOCC2)c1 [Example 208, (3S)-N-[3-(2-[[(1R,3R)-3-hydroxycyclopentyl]oxy]-6-(morpholin-4-yl)pyridin-4-yl)-4-methylphenyl]-3-(2,2,2-trifluoroethyl)pyrrolidine-1-carboxamide] |
| < 10 nM | Cc1ccc(NC(=O)N2CC[C@@H](CC(F)(F)F)C2)cc1-c1cc(O[C@H]2CC[C@@H](O)C2)nc(N2CCOCC2)c1 [Example 209, (3S)-N-[3-(2-[[(1S,3R)-3-hydroxycyclopentyl]oxy]-6-(morpholin-4-yl)pyridin-4-yl)-4-methylphenyl]-3-(2,2,2-trifluoroethyl)pyrrolidine-1-carboxamide] |
| < 10 nM | Cc1ccc(NC(=O)N2CC[C@@H](CC(F)(F)F)C2)cc1-c1cc(O[C@@H]2CC[C@H](O)C2)nc(N2CCOCC2)c1 [Example 210, (3S)-N-[3-(2-[[(1R,3S)-3-hydroxycyclopentyl]oxy]-6-(morpholin-4-yl)pyridin-4-yl)-4-methylphenyl]-3-(2,2,2-trifluoroethyl)pyrrolidine-1-carboxamide] |
| < 10 nM | Cc1ccc(NC(=O)N2CC[C@@H](CC(F)(F)F)C2)cc1-c1cc(OC2CCC(C)(O)CC2)nc(N2CCOCC2)c1 (stereo partly drawn) [Example 211, (3S)-N-(3-[2-[(4-hydroxy-4-methylcyclohexyl)oxy]-6-(morpholin-4-yl)pyridin-4-yl]-4-methylphenyl)-3-(2,2,2-trifluoroethyl)pyrrolidine-1-carboxamide (cis)] |
| < 10 nM | Cc1ccc(NC(=O)N2CC[C@@H](CC(F)(F)F)C2)cc1-c1cc(OC2CCC(C)(O)CC2)nc(N2CCOCC2)c1 (stereo partly drawn) [Example 212, (3S)-N-(3-[2-[(4-hydroxy-4-methylcyclohexyl)oxy]-6-(morpholin-4-yl)pyridin-4-yl]-4-methylphenyl)-3-(2,2,2-trifluoroethyl)pyrrolidine-1-carboxamide (trans)] |
| < 10 nM | Cc1ccc(NC(=O)N2CC[C@@H](OC(F)(F)F)C2)cc1-c1cc(OC[C@H](C)O)nc(N2CCOCC2)c1 [Example 213, (3R)-N-(3-[2-[(2S)-2-hydroxypropoxy]-6-(morpholin-4-yl)pyridin-4-yl]-4-methylphenyl)-3-(trifluoromethoxy)pyrrolidine-1-carboxamide] |
| < 10 nM | Cc1ccc(NC(=O)N2CC[C@@H](OC(F)(F)F)C2)cc1-c1cc(O[C@H](C)CO)nc(N2CCOCC2)c1 [Example 214, (3R)-N-[3-(2-[[(2R)-1-hydroxypropan-2-yl]oxy]-6-(morpholin-4-yl)pyridin-4-yl)-4-methylphenyl]-3-(trifluoromethoxy)pyrrolidine-1-carboxamide] |
| < 10 nM | Cc1ccc(NC(=O)N2CC[C@@H](OC(F)(F)F)C2)cc1-c1cc(O[C@@H](C)CO)nc(N2CCOCC2)c1 [Example 215, (3R)-N-[3-(2-[[(2S)-1-hydroxypropan-2-yl]oxy]-6-(morpholin-4-yl)pyridin-4-yl)-4-methylphenyl]-3-(trifluoromethoxy)pyrrolidine-1-carboxamide] |
| < 10 nM | Cc1ccc(NC(=O)N2CC=C(CC(F)(F)F)C2)cc1-c1cc(OCC(C)(C)O)nc(N2CCOCC2)c1 [Example 216, N-[3-[2-(2-hydroxy-2-methylpropoxy)-6-(morpholin-4-yl)pyridin-4-yl]-4-methylphenyl]-3-(2,2,2-trifluoroethyl)-2,5-dihydropyrrole-1-carboxamide] |
| < 10 nM | Cc1ccc(NC(=O)N2CC[C@@H](CC(F)(F)F)C2)cc1-c1cc(OCC2(O)CC2)nc(N2CCOCC2)c1 [Example 218, (3S)-N-(3-[2-[(1-hydroxycyclopropyl)methoxy]-6-(morpholin-4-yl)pyridin-4-yl]-4-methylphenyl)-3-(2,2,2-trifluoroethyl)pyrrolidine-1-carboxamide] |
| < 10 nM | Cc1ccc(NC(=O)N2CC[C@@H](CC(F)(F)F)C2)cc1-c1cc(O[C@@H]2CCC(F)(F)C2)nc(N2CCOCC2)c1 [Example 219, (3S)-N-[3-(2-[[(1R)-3,3-difluorocyclopentyl]oxy]-6-(morpholin-4-yl)pyridin-4-yl)-4-methylphenyl]-3-(2,2,2-trifluoroethyl)pyrrolidine-1-carboxamide] |
| < 10 nM | Cc1ccc(NC(=O)N2CC[C@@H](CC(F)(F)F)C2)cc1-c1cc(O[C@H]2CCC(F)(F)C2)nc(N2CCOCC2)c1 [Example 220, (3S)-N-[3-(2-[[(1S)-3,3-difluorocyclopentyl]oxy]-6-(morpholin-4-yl)pyridin-4-yl)-4-methylphenyl]-3-(2,2,2-trifluoroethyl)pyrrolidine-1-carboxamide] |
| < 10 nM | Cc1ccc(NC(=O)N2CC[C@@H](CC(F)(F)F)C2)cc1-c1cc(OCCS(C)(=N)=O)nc(N2CCOCC2)c1 (stereo partly drawn) [Example 221, (3S)-N-[3-(2-[2-[imino(methyl)oxo-λ^6-sulfanyl]ethoxy]-6-(morpholin-4-yl)pyridin-4-yl)-4-methylphenyl]-3-(2,2,2-trifluoroethyl)pyrrolidine-1-carboxamide] |
| < 10 nM | Cc1ccc(NC(=O)N2CC=C(CC(F)(F)F)C2)cc1-c1cc(OC[C@@H](C)O)nc(N2CCOCC2)c1 [Example 222, (R)-N-(3-(2-(2-hydroxypropoxy)-6-morpholinopyridin-4-yl)-4-methylphenyl)-3-(2,2,2-trifluoroethyl)-2,5-dihydro-1H-pyrrole-1-carboxamide] |
| < 10 nM | Cc1ccc(NC(=O)N2CC[C@@H](CC(F)(F)F)C2)cc1-c1cc(OC2CCC(C)(O)C2)nc(N2CCOCC2)c1 (stereo partly drawn) [Example 223, (3S)-N-(3-[2-[(3-hydroxy-3-methylcyclopentyl)oxy]-6-(morpholin-4-yl)pyridin-4-yl]-4-methylphenyl)-3-(2,2,2-trifluoroethyl)pyrrolidine-1-carboxamide] |
| < 10 nM | Cc1ccc(NC(=O)N2CC[C@@H](CC(F)(F)F)C2)cc1-c1cc(OCC2(O)COC2)nc(N2CCOCC2)c1 [Example 224, (3S)-N-(3-[2-[(3-hydroxyoxetan-3-yl)methoxy]-6-(morpholin-4-yl)pyridin-4-yl]-4-methylphenyl)-3-(2,2,2-trifluoroethyl)pyrrolidine-1-carboxamide] |
| < 10 nM | Cc1ccc(NC(=O)N2CC[C@@H](CC(F)(F)F)C2)cc1-c1cc(OCCC2(O)COC2)nc(N2CCOCC2)c1 [Example 225, (3S)-N-(3-[2-[2-(3-hydroxyoxetan-3-yl)ethoxy]-6-(morpholin-4-yl)pyridin-4-yl]-4-methylphenyl)-3-(2,2,2-trifluoroethyl)pyrrolidine-1-carboxamide] |
| < 10 nM | Cc1ccc(NC(=O)N2CC[C@@H](CC(F)(F)F)C2)cc1-c1cncc(N2CCOCC2)c1 [Example 226, (3S)-N-[4-methyl-3-[5-(morpholin-4-yl)pyridin-3-yl]phenyl]-3-(2,2,2-trifluoroethyl)pyrrolidine-1-carboxamide] |
| < 10 nM | Cc1ccc(NC(=O)N2CC[C@@H](CC(F)(F)F)C2)cc1-c1cc(OC[C@@H](C)O)nc(N2CCO[C@@H](C)C2)c1 [Example 227, (3S)-N-(3-[2-[(2R)-2-hydroxypropoxy]-6-[(2S)-2-methylmorpholin-4-yl]pyridin-4-yl]-4-methylphenyl)-3-(2,2,2-trifluoroethyl)pyrrolidine-1-carboxamide] |
| < 10 nM | Cc1ccc(NC(=O)N2CC[C@@H](CC(F)(F)F)C2)cc1-c1cc(OC[C@@H](C)O)nc(N2CCO[C@H](C)C2)c1 [Example 228, (S)-N-(3-(2-((R)-2-hydroxypropoxy)-6-((R)-2-methylmorpholino)pyridin-4-yl)-4-methylphenyl)-3-(2,2,2-trifluoroethyl)pyrrolidine-1-carboxamide] |
| < 10 nM | Cc1ccc(NC(=O)N2CC[C@@H](CC(F)(F)F)C2)cc1-c1cc(OC[C@@H](C)O)nc(N2CC3(COC3)C2)c1 [Example 229, (3S)-N-(3-[2-[(2R)-2-hydroxypropoxy]-6-[2-oxa-6-azaspiro[3.3]heptan-6-yl]pyridin-4-yl]-4-methylphenyl)-3-(2,2,2-trifluoroethyl)pyrrolidine-1-carboxamide] |
| < 10 nM | Cc1ccc(NC(=O)N2CC[C@@H](CC(F)(F)F)C2)cc1-c1cc(OC[C@@H](C)O)nc(N2CCOC3CC32)c1 (stereo partly drawn) [Example 230, (3S)-N-(3-(2-(2-oxa-5-azabicyclo[4.1.0]heptan-5-yl)-6-((R)-2-hydroxypropoxy)pyridin-4-yl)-4-methylphenyl)-3-(2,2,2-trifluoroethyl)pyrrolidine-1-carboxamide] |
| < 10 nM | Cc1ccc(NC(=O)N2CC[C@@H](CC(F)(F)F)C2)cc1-c1cc(OC2(CO)CC2)nc(N2CCOCC2)c1 [Example 231, (S)-N-(3-(2-(1-(hydroxymethyl)cyclopropoxy)-6-morpholinopyridin-4-yl)-4-methylphenyl)-3-(2,2,2-trifluoroethyl)pyrrolidine-1-carboxamide] |

| SMILES | IC50 |
| --- | --- |
| Cc1ccc(NC(=O)N2CC[C@@H](CC(F)(F)F)C2)cc1-c1cc(OC2CC(O)C2)nc(N2CCOCC2)c1 (stereo partly drawn) [Example 206, (3S)-N-[3-[2-(3-hydroxycyclobutoxy)-6-(morpholin-4-yl)pyridin-4-yl]-4-methylphenyl]-3-(2,2,2-trifluoroethyl)pyrrolidine-1-carboxamide] | < 10 nM |
| Cc1ccc(NC(=O)N2CC[C@@H](CC(F)(F)F)C2)cc1-c1cc(OC2CC(C)(O)C2)nc(N2CCOCC2)c1 (stereo partly drawn) [Example 217, (3S)-N-[3-[2-(3-hydroxy-3-methylcyclobutoxy)-6-(morpholin-4-yl)pyridin-4-yl]-4-methylphenyl]-3-(2,2,2-trifluoroethyl)pyrrolidine-1-carboxamide] | < 10 nM |
